Measurements as given in PubChem BioAssay (NCI).
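Values below derive from 48-hour exposures of cells grown in 96-well plates, with endpoints linearly interpolated between the two concentrations bracketing the appropriate inhibition level. TGI: concentration producing complete growth inhibition.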

How the values were obtained:
Assay in all cases: inhibition of tumour cell growth, NCI panel, 48 h
HT29 colon = system: HT29 colon
UACC-257 melanoma = system: UACC-257 melanoma
CAKI-1 renal = system: CAKI-1 renal
SN12C renal = system: SN12C renal
SK-OV-3 ovarian = system: SK-OV-3 ovarian
HCT-15 colon = system: HCT-15 colon
T-47D breast = system: T-47D breast
UO-31 renal = system: UO-31 renal
UACC-62 melanoma = system: UACC-62 melanoma
K-562 leukemia = system: K-562 leukemia

Cc1nc2ncn3c(c-2c1Cc1ccccc1)NC=C(O)N3
TGI (HT29 colon): > 100 µM
TGI (UACC-257 melanoma): > 100 µM
TGI (CAKI-1 renal): > 100 µM
TGI (SN12C renal): > 100 µM
TGI (SK-OV-3 ovarian): > 100 µM
TGI (HCT-15 colon): > 100 µM
TGI (T-47D breast): 61.3 µM
TGI (UO-31 renal): > 100 µM
TGI (UACC-62 melanoma): > 100 µM

COC(=O)C[C@H](COCc1ccccc1)NC(=O)C[C@H](COCc1ccccc1)NC(=O)OC(C)(C)C
TGI (HT29 colon): > 100 µM
TGI (CAKI-1 renal): > 100 µM
TGI (SN12C renal): 80.6 µM
TGI (SK-OV-3 ovarian): 59.8 µM
TGI (HCT-15 colon): > 100 µM
TGI (T-47D breast): 98.7 µM
TGI (K-562 leukemia): > 100 µM
TGI (UO-31 renal): > 100 µM
TGI (UACC-62 melanoma): > 100 µM

CCCCCOC(=O)c1cc2cc(CCl)ccc2oc1=O
TGI (HT29 colon): 35.4 µM
TGI (UACC-257 melanoma): 5.96 µM
TGI (CAKI-1 renal): 6.3 µM
TGI (SN12C renal): 28.1 µM
TGI (SK-OV-3 ovarian): 45 µM
TGI (HCT-15 colon): 35.4 µM
TGI (T-47D breast): 13.6 µM
TGI (K-562 leukemia): > 49.4 µM
TGI (UO-31 renal): 11.1 µM
TGI (UACC-62 melanoma): 5.91 µM

Cc1cc(=O)[nH]c(/N=C(\N)Nc2ccc(Cl)cc2)n1
TGI (HT29 colon): > 100 µM
TGI (UACC-257 melanoma): > 100 µM
TGI (CAKI-1 renal): > 100 µM
TGI (SN12C renal): > 100 µM
TGI (HCT-15 colon): > 100 µM
TGI (T-47D breast): > 100 µM
TGI (K-562 leukemia): > 100 µM
TGI (UO-31 renal): > 100 µM
TGI (UACC-62 melanoma): > 100 µM

Nc1ccc(-c2nc3cc(F)ccc3s2)cc1CO
TGI (HT29 colon): > 100 µM
TGI (UACC-257 melanoma): > 100 µM
TGI (CAKI-1 renal): > 100 µM
TGI (SN12C renal): > 100 µM
TGI (SK-OV-3 ovarian): 49.3 µM
TGI (HCT-15 colon): > 100 µM
TGI (T-47D breast): > 100 µM
TGI (K-562 leukemia): > 100 µM
TGI (UO-31 renal): > 100 µM
TGI (UACC-62 melanoma): > 58.7 µM

O=C1/C(=C\c2ccc(F)cc2)CCOc2c1ccc1ccccc21
TGI (HT29 colon): > 56.8 µM
TGI (UACC-257 melanoma): 54.4 µM
TGI (CAKI-1 renal): > 81.6 µM
TGI (SN12C renal): > 89.2 µM
TGI (SK-OV-3 ovarian): > 100 µM
TGI (HCT-15 colon): > 100 µM
TGI (T-47D breast): > 100 µM
TGI (K-562 leukemia): > 31.1 µM
TGI (UO-31 renal): > 100 µM
TGI (UACC-62 melanoma): > 100 µM

COc1ccc(C(=O)N(C(=O)N2CCN(c3ccccc3)CC2)S(=O)(=O)c2ccccc2)cc1
TGI (HT29 colon): > 100 µM
TGI (UACC-257 melanoma): > 100 µM
TGI (CAKI-1 renal): 54.2 µM
TGI (SN12C renal): 55.9 µM
TGI (SK-OV-3 ovarian): > 100 µM
TGI (HCT-15 colon): > 100 µM
TGI (T-47D breast): 54 µM
TGI (K-562 leukemia): 94.4 µM
TGI (UO-31 renal): 26.7 µM
TGI (UACC-62 melanoma): 39.6 µM

COC(CN(C=O)[C@@H](c1ccc(Cl)cc1)c1cc2ccccc2o1)OC
TGI (HT29 colon): 36.3 µM
TGI (UACC-257 melanoma): 28 µM
TGI (CAKI-1 renal): 34.7 µM
TGI (SN12C renal): 31.1 µM
TGI (SK-OV-3 ovarian): 26.6 µM
TGI (HCT-15 colon): 32.8 µM
TGI (T-47D breast): 33.8 µM
TGI (K-562 leukemia): 53.6 µM
TGI (UO-31 renal): 31.2 µM
TGI (UACC-62 melanoma): 29.7 µM
